Measured values taken from patent US20220096436A1, “COMBINATION PRODUCT FOR THE TREATMENT OF CANCER” (Debiopharm International S.A., priority 2019, published 2022).

Key:
CT-26 colorectal cancer = test: Therapeutic efficacy in CT-26 colorectal cancer mouse syngeneic model; assay type: in vivo; conditions: Debio 1143 combined with IDO inhibitor INCB024360
Description: (§1) The therapeutic efficacy of Debio 1143 combined with an anti-CTLA4 antibody was tested in a TS/A breast cancer mouse syngeneic model. Further, the therapeutic efficacy of Debio 1143 combined with an IDO inhibitor (INCB024360) was tested in a CT-26 colorectal cancer mouse syngeneic model.

TS/A breast cancer = test: Therapeutic efficacy in TS/A breast cancer mouse syngeneic model; assay type: in vivo; conditions: Debio 1143 combined with an anti-CTLA4 antibody
Description: as §1

B16F10 melanoma tumors = test: Anti-tumor efficacy in subcutaneous B16F10 mouse melanoma syngeneic model; assay type: in vivo, C57BL/6 mice; conditions: for TGI: vs vehicle; for mean tumor volume: vehicle group 1529 mm^3
Description: C57BL/6 mice were s.c. injected with 2×10^5 B16F10 tumor cells (see, for example, Bobek et al., 2010. Anticancer Res. 30(12):4799-803) and treatments started at a mean group tumor size of 94 mm^3 (n=8/group). Debio 1143 at 100 and 200 mg/kg p.o. was given on 5 days/week in combination with 10 mg/kg i.p. anti-PD1 twice weekly and compared to treatment with vehicle plus isotype antibody. In addition, the 100 mg/kg dose given twice weekly in combination with anti-PD1 at 10 mg/kg i.p. twice weekly was tested.

[1] = nivolumab 3-10 mg/kg q2w monotherapy across tumor types, n=2,578; cited from earlier work
cancers = conditions: nivolumab monotherapy, 27 trials, n=5,551, cited from earlier work

Molecule	combination therapy compared to the respective monotherapies (CT-26 colorectal cancer)	combination therapy compared to the respective monotherapies (TS/A breast cancer)	TGI (B16F10 melanoma tumors; day 19, Debio 1143 100 mg/kg p.o. QD1-5 combined with anti-PD-1 10 mg/kg, P=0.155)	mean tumor volume (B16F10 melanoma tumors; day 19, Debio 1143 200 mg/kg p.o. 5 days/week in combination with 10 mg/kg anti-PD-1)	TGI (B16F10 melanoma tumors; day 19, Debio 1143 200 mg/kg p.o. 5 days/week in combination with 10 mg/kg anti-PD-1, P=0.005)	mean tumor volume (B16F10 melanoma tumors; day 19, bi-weekly Debio 1143 100 mg/kg in combination with anti-PD-1 10 mg/kg)	TGI (B16F10 melanoma tumors; day 19, bi-weekly Debio 1143 100 mg/kg in combination with anti-PD-1 10 mg/kg, P=0.757)	mean tumor volume (B16F10 melanoma tumors; day 19 from tumor inoculation, Debio 1143 100 mg/kg p.o. QD1-5 (5 days/week) combined with anti-PD-1 10 mg/kg i.p. twice weekly)	adverse reaction frequency: diarrhea [1]	adverse reaction frequency: fatigue [1]	adverse reaction frequency: pruritus [1]	adverse reaction frequency: rash [1]	pooled objective response rate (ORR) (cancers; 95% CI 21-31)	6-month PFS rate (cancers; 95% CI 34-46)	1-year OS rate (cancers; 95% CI 43-62)
CN[C@@H](C)C(=O)N[C@H]1CN(C(=O)CC(C)C)CC[C@H]2CC[C@@H](C(=O)NC(c3ccccc3)c3ccccc3)N2C1=O [Debio 1143, (5S,8S,10aR)-N-benzhydryl-5-((S)-2-(methylamino)propanamido)-3-(3-methylbutanoyl)-6-oxodecahydropyrrolo[1,2-a][1,5]diazocine-8-carboxamide]	did not lead to a statistically significant improvement	did not lead to a statistically significant improvement	31%	594 mm^3	61%	1396 mm^3	9%	1049 mm^3							
nivolumab: fully human immunoglobulin G4 (IgG4) monoclonal antibody, which binds to the PD-1 receptor and blocks its interaction with PD-L1 and PD-L2									13%	30%	13%	17%	26%	40%	52%
